# Data: article PMC3806803 (PLoS ONE, 2013)
# Assays:
# [1] = molecular target: H7 HA (recombinant) (Influenza A virus (A/Netherlands/219/2003(H7N7)), UniProt Q6VMK1)
# [2] = molecular target: H7 HA (recombinant) (Influenza A virus (A/Netherlands/219/2003(H7N7)), UniProt Q6VMK1); remark: listed apart in the source
# [3] = molecular target: H3 HA (recombinant) (Influenza A virus (A/Brisbane/10/2007(H3N2)), UniProt A8W8K8)
smiles,measurement,setting,value
CC(C)(C)c1cc(O)ccc1O [TBHQ],WaterLOGSY and STD NMR; competition with antibody F49,[1],"TBHQ binds to H7 HA and, based on the competition NMR experiment"
same,midpoint pH of proteolysis susceptibility with TBHQ,[2],~ 4.6 pH
same,WaterLOGSY and STD NMR; competition with antibody F49,[3],NMR experiment clearly indicates that TBHQ binds to H3 HA
